{"source": "paper PMC9416111", "about": "“Synthesis and Biological Activity of Unsymmetrical Monoterpenylhetaryl Disulfides” (Molecules, 2022)", "system": "influenza virus A/Puerto Rico/8/34 (H1N1)", "assay": "Antiviral cell protection assay in MDCK cells", "type": "cell-based"}
{"smiles": "CC1(C)[C@H]2CC[C@@H](CSSc3ncccc3C(=O)O)[C@@H]1C2", "note": "[Compound 2d, 2-((((1S,2R,5S)-6,6-dimethylbicyclo[3.1.1]heptan-2-yl)methyl)disulfanyl)nicotinic acid]", "values": [{"measurement": "virus-inhibiting activity, in words", "result": "higher than that of Rimantadine"}]}
